Source: patent US7053194B2, “Compositions and methods for p53-mediated repression of gene expression” (Fox Chase Cancer Center, priority 1999, dated 2006)

Key:
A2780 cells = assay: Northern analysis of stathmin mRNA after adriamycin treatment; assay type: cell-based, human; conditions: A2780, adriamycin, 12 hours, data not shown
Protocol: (§1) Sub-confluent cultures of MCF 7 and A2780 cells were treated with 100 nM trichostatin A (TSA, Sigma)for 2 hours, followed by incubation with 0.5 ug/ml adriamycin (doxorubicin, Sigma) for the indicated timepoints. Va15 cells grown at 39 degrees were treated with 100 nM TSA for two hours, followed by temperature shift to 32 degrees for 12 hours. p53 induction was monitored by western analysis of 100 ug protein as described (Murphy et al., Genes & Devel. 10:2971–2980, 1996), using 0.1ug/ml DO-1 (Ab-6, Calbiochem) or 421 (Ab-1, Calbiochem). MDM2 induction was monitored using the monoclonal antibody 2A10, kindly provided by Arnold Levine (Rockefeller University). For UV treatments, cells were irradiated with 4 J/m2 of UV-C with a Spectroline X series ultraviolet lamp, and output was monitored with a traceable UV light meter (Fisher Scientific). For ALLN treatment, MCF-7 cells were treated with 50 uM ALLN (calpain I inhibitor, Sigma) made in DMSO (dimethyl sulfoxide, Sigma) or with DMSO alone for 2 hours prior to harvesting.
(§2) Total RNA was isolated from cells using CsC1 purification (Murphy et al., Genes & Devel. 10:2971–2980, 1996) or using Trizol, as per the manufacturer (Gibco/BRL). Northern analyses were performed as described (Murphy et al., Genes & Devel. 10:2971–2980, 1996). Probes for Northerns were radio labeled using random primers (Prime-It-II, Stratagene) and α^32P dCTP (NEN). Autoradiographs were quantitated using NIH image software. The average values from three independent experiments were plotted onto bar graphs following normalization to GAPDH.
(§3) To extend these observations, the human tumor derived cell lines MCF7 (breast carcinoma)and A2780 (ovarian carcinoma) were analyzed following treatment with adriamycin to activate the endogenous, wild type p53 protein. Because of difficulties detecting human Map4 message, we analyzed the mRNA levels of stathmin (also called oncoprotein 18). We recently identified stathmin as a p53-repressed gene. A time course of treatment of MCF-7 cells with the DNA-damaging agent adriamycin (doxorubicin, DOX) results in approximately 30% reduction of stathmin RNA levels after 8 hours and 75% reduction after 24 hours. We chose to focus further on the 12 hour timepoint of adriamycin treatment, where 50% repression of stathmin was evident, in order to limit the toxicity sometimes associated with TSA (Yoshida et al., J Biol Chem 265:17174–17179, 1990). […] The results of three independent experiments indicate that the repression of stathmin expression evident after 12 hours of adriamycin treatment is completely abrogated by incubation with TSA. In contrast, neither the post-translational stabilization of p53 by adriamycin (DOX) nor the induction of the p53 response genes mdm2 and p21/waf1 were affected by TSA. […] We have performed identical experiments in A2780 cells (ovarian carcinoma, wt p53).

MCF-7 cells = assay: as above; assay type: cell-based, human; conditions: MCF-7, adriamycin 0.5 ug/ml
Protocol: as §1, §2, §3

[1] = test system: human breast carcinoma cells (MCF7); assay: Northern analysis of survivin mRNA after doxorubicin; assay type: cell-based; conditions: MCF7, 0.5 ug/mL doxorubicin, as early as twelve hours
Protocol: MCF-7 cells were maintained in RPMI-1640 supplemented with 10% fetal bovine serum and 100 units/ml of penicillin and streptomycin. The human melanoma cell line CaCl, and the derivative clone expressing the HPV E6 gene, were cultured as described (Ahn et al., Oncogene). The human osteosarcoma cell lines Saos-2 and U2-OS (kindly provided by Peter Adams, Fox Chase Cancer Center), the murine p21 knock-out fibroblasts (kindly provided by James Sherley, MIT) and the human lung adenocarcinoma cell line H1299 were cultured in DMEM supplemented with 10% fetal bovine serum and 100 units/ml of penicillin and streptomycin. Murine Va15 cells, containing the temperature-sensitive Valine 135 allele of p53, were maintained as described (Wu, et al., Genes & Devel. 7:1126–1132, 1993). All cells were grown at 37° C. […] For treatment with ultra-violet light, cells were irradiated with 0–10 J/m2 (as noted) of UV-C with a Spectroline X series ultraviolet lamp, and output was monitored with a traceable UV light meter (Fisher Scientific). […]
The full-length coding region for survivin was generated by reverse transcription-polymerase chain reaction (RT-PCR) using 5 ug of total RNA from the H1299 human lung adenocarcinoma cell line, using the Access RT-PCR kit (Promega) and the following oligonucleotides: forward 5′ […] […] Autoradiographs were quantitated using NIH image software. […]

COc1cccc2c1C(=O)c1c(O)c3c(c(O)c1C2=O)C[C@@](O)(C(=O)CO)C[C@@H]3O[C@H]1C[C@H](N)[C@H](O)[C@H](C)O1 [adriamycin, doxorubicin]
repression of stathmin expression (A2780 cells): approximately 50% | reduction of stathmin RNA levels (MCF-7 cells; 8 hours): approximately 30% | repression of stathmin (MCF-7 cells; 12 hours): 50% | reduction of stathmin RNA levels (MCF-7 cells; 24 hours): ~75% | mRNA levels for survivin [1]: marked decreases in mRNA levels for survivin
